Read-outs that look alike come from different tables or passages of the source.
Legend:
[1] = tested on: T-Rex 293 cell line SC3 cells having increased expression of androgen receptor protein due to exposure to doxycycline; assay: Cellular growth inhibition assay, T-Rex 293 SC3 cells with doxycycline (CellTiter-Glo, 72 hours); type: cell-based; conditions: T-Rex 293 SC3 cells with increased androgen receptor expression due to doxycycline (10 ng/mL)
Outline: (§1)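 Growth inhibition is measured in an inducible AR-expressing T-Rex 293 clone, SC3, cultured with or without 10 ng/mL doxycycline in hormone-depleted medium. Test compounds are applied for 72 hours. GI50 values derive from CellTiter-Glo 2.0 signal fitted by four-parameter regression.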

VCaP cells = assay: Cellular growth inhibition assay for VCaP cells (CellTiter-Glo, 72 hours); type: cell-based, human
Outline: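 Luminescent viability signal after 72 h of compound exposure gave GI50 values by four-parameter nonlinear regression. Compounds were added in 0.5% DMSO to cells plated 24 h earlier at 5000/well in DMEM containing 10% FBS.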

T47D cells = assay: Cellular growth inhibition assay for T47D cells (CellTiter-Glo, 72 hours); type: cell-based, human; conditions: 72 hours treatment
Outline: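 Cells are plated at 3000/well and allowed 24 h before treatment. Test compound in medium containing 0.5% DMSO is then added, with DMSO-only wells as negative control, and plates are incubated 72 h at 37 °C. ATP luminescence (CellTiter-Glo 2.0) is then fitted to four parameters to derive GI50.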

[2] = tested on: T-Rex 293 cell line SC3 cells lacking increased expression of androgen receptor protein; assay: Cellular growth inhibition assay, T-Rex 293 SC3 cells without doxycycline (CellTiter-Glo, 72 hours); type: cell-based; conditions: T-Rex 293 cell line SC3 cells not exposed to doxycycline (lacking increased androgen receptor expression)
Outline: as §1

Cc1sc2c(c1C)C(c1ccc(CC[C@@H]3CC[C@@]4(CCCN(c5ccc(C(=O)N[C@H]6CC[C@H](Oc7ccc(C#N)c(Cl)c7)CC6)nn5)C4)C3)cc1)=N[C@@H](Cc1ncco1)c1nnc(C)n1-2 [I-214]
GI50 ([1]; 72 h): > 3000 nM
GI50 (VCaP cells; Homo sapiens, VCaP, 72 h): > 3000 nM
GI50 (T47D cells; Homo sapiens, T47D, 72 h): > 3000 nM
GI50 ([2]; 72 h): > 3000 nM

Cc1sc2c(c1C)C(c1ccc(CNC(=O)CN(C)c3ccc(C(=O)N[C@H]4CC[C@H](Oc5ccc(C#N)c(Cl)c5)CC4)nn3)cc1)=N[C@@H](Cc1ncco1)c1nnc(C)n1-2 [I-243]
GI50 ([1]; 72 h): < 500 nM
GI50 (VCaP cells; Homo sapiens, VCaP, 72 h): 500 to 1500 nM
GI50 (T47D cells; Homo sapiens, T47D, 72 h): 500 to 1500 nM
GI50 ([2]; 72 h): 500 to 1500 nM

Cc1sc2c(c1C)C(c1ccc(N3CCC4(CCN(c5ccc(C(=O)N[C@H]6CC[C@H](Oc7ccc(C#N)c(Cl)c7)CC6)nn5)CC4)C3)cc1)=N[C@@H](Cc1ncco1)c1nnc(C)n1-2 [I-388]
GI50 ([1]; 72 h): < 500 nM
GI50 (VCaP cells; Homo sapiens, VCaP, 72 h): < 500 nM
GI50 (T47D cells; Homo sapiens, T47D, 72 h): < 500 nM
GI50 ([2]; 72 h): < 500 nM

Cc1sc2c(c1C)C(c1ccc(OC[C@H]3CC[C@@]4(CCCN(c5ccc(C(=O)N[C@H]6CC[C@H](Oc7ccc(C#N)c(Cl)c7)CC6)nn5)C4)C3)cn1)=N[C@@H](Cc1ncco1)c1nnc(C)n1-2 [I-406]
GI50 ([1]; 72 h): < 500 nM
GI50 (VCaP cells; Homo sapiens, VCaP, 72 h): < 500 nM
GI50 (T47D cells; Homo sapiens, T47D, 72 h): < 500 nM
GI50 ([2]; 72 h): < 500 nM

Cc1sc2c(c1C)C(c1ccc(OC3CC4(CCN(c5ccc(C(=O)N[C@H]6CC[C@H](Oc7ccc(C#N)c(Cl)c7)CC6)nc5)CC4)C3)cc1)=N[C@@H](Cc1ncco1)c1nnc(C)n1-2 [I-89]
GI50 ([1]; 72 h): < 500 nM
GI50 (VCaP cells; Homo sapiens, VCaP, 72 h): < 500 nM
GI50 (T47D cells; Homo sapiens, T47D, 72 h): < 500 nM
GI50 ([2]; 72 h): < 500 nM

Cc1sc2c(c1C)C(c1ccc(N3CCC4(CC3)CCN(c3ccc(C(=O)N[C@H]5CC[C@H](Oc6ccc(C#N)c(Cl)c6)CC5)nn3)C4)cc1)=N[C@@H](Cc1ncco1)c1nnc(C)n1-2 [I-368]
GI50 ([1]; 72 h): < 500 nM
GI50 (VCaP cells; Homo sapiens, VCaP, 72 h): < 500 nM
GI50 (T47D cells; Homo sapiens, T47D, 72 h): < 500 nM
GI50 ([2]; 72 h): < 500 nM

Cc1sc2c(c1C)C(c1ccc(C#CC3CC4(C3)CN(c3ccc(C(=O)N[C@H]5CC[C@H](Oc6ccc(C#N)c(Cl)c6)CC5)nn3)C4)cc1)=N[C@@H](C)c1nnc(C)n1-2 [I-311]
GI50 ([1]; 72 h): < 500 nM
GI50 (VCaP cells; Homo sapiens, VCaP, 72 h): < 500 nM
GI50 (T47D cells; Homo sapiens, T47D, 72 h): < 500 nM
GI50 ([2]; 72 h): < 500 nM

Cc1sc2c(c1C)C(c1ccc(O[C@H]3CC[C@@]4(CCCN(c5ccc(C(=O)N[C@H]6CC[C@H](Oc7ccc(C#N)c(Cl)c7)CC6)nn5)C4)C3)cn1)=N[C@@H](Cc1ncco1)c1nnc(C)n1-2 [I-361]
GI50 ([1]; 72 h): < 500 nM
GI50 (VCaP cells; Homo sapiens, VCaP, 72 h): < 500 nM
GI50 (T47D cells; Homo sapiens, T47D, 72 h): 500 to 1500 nM
GI50 ([2]; 72 h): > 3000 nM

Cc1sc2c(c1C)C(c1ccc(C#CC3CC4(C3)CN(c3ccc(C(=O)N[C@H]5CC[C@H](Oc6ccc(C#N)c(Cl)c6)CC5)nn3)C4)cc1)=N[C@H](Cc1ncco1)c1nnc(C)n1-2 [I-227]
GI50 ([1]; 72 h): < 500 nM
GI50 (VCaP cells; Homo sapiens, VCaP, 72 h): < 500 nM
GI50 (T47D cells; Homo sapiens, T47D, 72 h): > 3000 nM
GI50 ([2]; 72 h): > 3000 nM

Cc1sc2c(c1C)C(c1ccc(CCC(=O)N3CCN(c4ccc(C(=O)N[C@H]5CC[C@H](Oc6ccc(C#N)c(Cl)c6)CC5)nn4)CC3)cc1)=N[C@@H](Cc1ncco1)c1nnc(C)n1-2 [I-249]
GI50 ([1]; 72 h): < 500 nM
GI50 (VCaP cells; Homo sapiens, VCaP, 72 h): < 500 nM
GI50 (T47D cells; Homo sapiens, T47D, 72 h): < 500 nM
GI50 ([2]; 72 h): 500 to 1500 nM

Cc1sc2c(c1C)C(c1ccc(O[C@@H]3CC[C@]4(CCCN(c5ccc(C(=O)N[C@H]6CC[C@H](Oc7ccc(C#N)c(Cl)c7)CC6)nn5)C4)C3)nc1)=N[C@@H](Cc1ncco1)c1nnc(C)n1-2 [I-284]
GI50 ([1]; 72 h): < 500 nM
GI50 (VCaP cells; Homo sapiens, VCaP, 72 h): < 500 nM
GI50 (T47D cells; Homo sapiens, T47D, 72 h): 500 to 1500 nM
GI50 [2]: < 500 nM

CCNC(=O)C[C@@H]1N=C(c2ccc(CN3CCN(c4ccc(C(=O)N[C@H]5CC[C@H](Oc6ccc(C#N)c(Cl)c6)CC5)nn4)CC3)cc2)c2c(sc(C)c2C)-n2c(C)nnc21 [I-38]
GI50 ([1]; 72 h): < 500 nM
GI50 (VCaP cells; Homo sapiens, VCaP, 72 h): < 500 nM
GI50 (T47D cells; Homo sapiens, T47D, 72 h): 500 to 1500 nM
GI50 ([2]; 72 h): 500 to 1500 nM

Cc1sc2c(c1C)C(c1ccc(CCC3CCC4CN(c5ccc(C(=O)N[C@H]6CC[C@H](Oc7ccc(C#N)c(Cl)c7)CC6)nn5)CCN4C3)cc1)=NC(Cc1ncco1)c1nnc(C)n1-2 (stereo partly drawn) [I-402]
GI50 [1]: < 500 nM
GI50 (VCaP cells): > 3000 nM
GI50 (T47D cells): > 3000 nM
GI50 [2]: > 3000 nM

CC1=NN=C2C1c1sc(C)c(C)c1C(c1ccc(C#CC3C4CN(c5ccc(C(=O)N[C@H]6CC[C@H](Oc7ccc(C#N)c(Cl)c7)CC6)nn5)CC34)cc1)=N[C@H]2Cc1ncco1 (stereo partly drawn) [I-407]
GI50 ([1]; 72 h): > 3000 nM
GI50 (VCaP cells; Homo sapiens, VCaP, 72 h): < 500 nM
GI50 (T47D cells; Homo sapiens, T47D, 72 h): > 3000 nM
GI50 ([2]; 72 h): > 3000 nM

Cc1sc2c(c1C)C(c1ccc(CNC(=O)[C@H]3CCCN(c4ccc(C(=O)N[C@H]5CC[C@H](Oc6ccc(C#N)c(Cl)c6)CC5)nn4)C3)cc1)=N[C@@H](Cc1ncco1)c1nnc(C)n1-2 [I-229]
GI50 ([1]; 72 h): < 500 nM
GI50 (VCaP cells; Homo sapiens, VCaP, 72 h): 500 to 1500 nM
GI50 (T47D cells; Homo sapiens, T47D, 72 h): 1500 to 3000 nM
GI50 ([2]; 72 h): 500 to 1500 nM

Source: patent US20260109707A1, “HETEROBIFUNCTIONAL COMPOUNDS AND METHODS OF TREATING DISEASE” (Halda Therapeutics OpCo. Inc., priority 2022, published 2026)
